Assays:
HER2 [1] = target: T1, HER2 (Homo sapiens, UniProt P04626); assay: HER2 internalization assay using Trastuzumab-AF488; assay type: cell-based; conditions: tucatinib 100 nM, SK-BR-3 cells, imaged at time points spanning 72 hours
Description: (§1) To probe the dynamics of HER2 at the cell surface upon binding to antibody therapeutics in the presence or absence of tucatinib (100 nM), SK-BR-3 cells were incubated with fluorescently-labeled trastuzumab (Trastuzumab-AF488) to mark HER2 at the cell surface. Excess antibody was washed out. Cells were imaged at time points spanning 72 hours to observe internalization of surface-bound antibody. […] Concurrent experiments were conducted with trastuzumab labeled with QF (Trastuzumab-QF) […], a quenched fluorophore which fluoresces upon lysosomal processing and can serve as a proxy for antibody catabolism.

HER2 [2] = target: T1, HER2; assay: plasma membrane-bound HER2 levels by quantitative FACS (qFACS); assay type: cell-based; parameters: four different HER2-amplified breast cancer cell lines (BT-474, SK-BR-3, HCC-1419, and UACC-893); endogenous in cells; host or cells: BT-474, SK-BR-3, HCC-1419, UACC-893; conditions: 30 nM or 100 nM tucatinib, 24 hours and 48 hours; BT-474, SK-BR-3, HCC-1419 and UACC-893 HER2-amplified breast cancer cell lines
Description: (§2) Protein lysates were generated from cells harvested at each time point, HER2 total protein levels were determined by western blot analysis using a WES system, and normalized against GAPDH levels as a loading control. As shown in FIG. 1A-1D, in all four cell lines tested, HER2 total protein levels increased after treatment with tucatinib relative to untreated cell lines. Total HER2 protein levels are shown as a percentage of the total HER2 protein levels of untreated cells. Plasma membrane-bound levels of HER2 were determined by quantitative FACS (qFACS) analysis after exclusion of dead cells. As shown in FIG. 1E-1H, treatment with either 30 nM or 100 nM increased plasma membrane-bound HER2 protein levels in all four cell lines relative to untreated cell lines. Plasma membrane-bound HER2 protein levels are shown as a percentage of the plasma membrane-bound HER2 protein levels of untreated cells.

HER2 [3] = target: T1, HER2; assay: HER2 internalization assay using Trastuzumab-QF (lysosomal processing); assay type: cell-based; conditions: tucatinib 100 nM; SK-BR-3 cells; Trastuzumab-QF in the presence of chloroquine
Description: as §1

HER2 [4] = target: T1, HER2; assay: HER2 total protein levels by western blot analysis (WES system), normalized against GAPDH; assay type: cell-based; parameters: four different HER2-amplified breast cancer cell lines (BT-474, SK-BR-3, HCC-1419, and UACC-893); endogenous in cells; host or cells: BT-474, SK-BR-3, HCC-1419, UACC-893; conditions: 30 nM or 100 nM tucatinib, 24 hours and 48 hours; BT-474, SK-BR-3, HCC-1419 and UACC-893 HER2-amplified breast cancer cell lines
Description: as §2

HER2 [5] = target: T1, HER2; assay: cellular signaling assays, selectivity for HER2 compared to EGFR; assay type: cell-based; parameters: four different HER2-amplified breast cancer cell lines (BT-474, SK-BR-3, HCC-1419, and UACC-893); endogenous in cells; host or cells: BT-474, SK-BR-3, HCC-1419, UACC-893
Source text: (§3) Tucatinib inhibits the HER2-driven mitogen-activated protein and PI3 kinase signaling pathways, resulting in inhibition of tumor cell proliferation, survival, and metastasis.

HER2 [6] = target: T1, HER2; assay: inhibition of HER2 in vitro; assay type: biochemical
Source text: as §3

T1 sequence (P04626 23-1255): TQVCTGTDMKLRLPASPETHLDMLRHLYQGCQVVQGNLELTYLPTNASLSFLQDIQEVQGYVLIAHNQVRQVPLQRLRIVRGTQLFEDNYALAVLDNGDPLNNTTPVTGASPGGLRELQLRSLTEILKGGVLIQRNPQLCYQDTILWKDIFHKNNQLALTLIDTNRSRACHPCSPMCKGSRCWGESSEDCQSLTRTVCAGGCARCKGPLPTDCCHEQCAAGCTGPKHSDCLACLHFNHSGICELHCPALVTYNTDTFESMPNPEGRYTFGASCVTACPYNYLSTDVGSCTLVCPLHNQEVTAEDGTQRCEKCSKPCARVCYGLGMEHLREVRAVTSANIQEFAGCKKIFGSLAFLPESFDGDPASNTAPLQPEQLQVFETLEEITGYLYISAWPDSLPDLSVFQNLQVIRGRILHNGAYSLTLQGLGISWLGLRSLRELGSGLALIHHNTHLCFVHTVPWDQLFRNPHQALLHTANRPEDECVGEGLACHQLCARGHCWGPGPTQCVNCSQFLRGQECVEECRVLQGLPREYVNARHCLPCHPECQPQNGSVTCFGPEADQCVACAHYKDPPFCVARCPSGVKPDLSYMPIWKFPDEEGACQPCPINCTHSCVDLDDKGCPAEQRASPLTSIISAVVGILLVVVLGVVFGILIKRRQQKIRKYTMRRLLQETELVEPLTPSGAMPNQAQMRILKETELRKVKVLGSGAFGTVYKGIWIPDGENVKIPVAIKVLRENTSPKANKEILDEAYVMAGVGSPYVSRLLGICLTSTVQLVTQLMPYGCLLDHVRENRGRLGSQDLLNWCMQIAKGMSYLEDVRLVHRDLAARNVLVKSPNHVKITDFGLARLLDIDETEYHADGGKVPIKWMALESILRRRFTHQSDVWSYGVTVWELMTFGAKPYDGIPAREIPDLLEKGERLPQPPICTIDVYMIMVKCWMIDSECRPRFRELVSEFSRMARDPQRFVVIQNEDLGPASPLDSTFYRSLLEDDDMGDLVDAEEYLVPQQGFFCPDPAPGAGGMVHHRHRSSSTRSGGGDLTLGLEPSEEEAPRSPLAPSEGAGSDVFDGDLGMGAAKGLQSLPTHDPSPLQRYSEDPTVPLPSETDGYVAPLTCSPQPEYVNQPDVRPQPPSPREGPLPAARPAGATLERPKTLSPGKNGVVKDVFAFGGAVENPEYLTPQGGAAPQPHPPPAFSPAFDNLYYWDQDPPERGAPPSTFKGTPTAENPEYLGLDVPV

## Cc1cc(Nc2ncnc3ccc(NC4=NC(C)(C)CO4)cc23)ccc1Oc1ccn2ncnc2c1 [tucatinib, N^4-(4-([1,2,4]triazolo[1,5-a]pyridin-7-yloxy)-3-methylphenyl)-N^6-(4,4-dimethyl-4,5-dihydrooxazol-2-yl) quinazoline-4,6-diamine]
HER2 [1]
  dwell time of HER2 at the cell surface: increased
HER2 [2]
  plasma membrane-bound HER2 protein levels relative to untreated cell lines: increased
HER2 [3]
  internalization and lysosomal processing of HER2-bound antibody: rapid internalization and lysosomal processing
HER2 [4]
  HER2 total protein levels relative to untreated cell lines: increased
HER2 [5]
  selectivity for HER2 compared to the closely related kinase EGFR: > 1000 fold
HER2 [6]
  inhibition of HER2 in vitro: potent inhibitor of HER2 in vitro
